Laboratory results taken from patent US20210137958A1, “PHARMACEUTICAL COMPOSITIONS OF DECITABINE” (SHILPA MEDICARE LIMITED, priority 2018, published 2021).

How the values were obtained:
[1] = format: physicochemical
Excerpt: a) Impurity 1 is formed in acidic and basic conditions. Impurity 1 is chemically 5-Azacytosine or 4-amino-1, 3, 5-triazin-2(1H)-one and represented by following structure.
b) Impurity 2 is an oxidation impurity formed by peroxide stress and is chemically (4-amino-1-(tetrahydro-4-hydroxy-5-(Hydroxymethyl)furan-2-yl)-1,3,5-triazin-2(1H)-one or alpha isomer and represented by following structure
c) Impurity 3 is an oxidation impurity formed by peroxide stress. Impurity 3 is chemically represented as (2-Deoxy-ribufuranosyl-3-guanylurea) or deformyl impurity and represented by following structure
d) NFDU impurity is a transition impurity and increases on oxidation by peroxide stress chemically represented as N-(formylamidino) N′-β-D-2′-deoxyribofuranosylurea and structurally represented as […]

[2] = reconstituted and diluted Dacogen solution; cited from earlier work

Nc1ncn([C@H]2C[C@H](O)[C@@H](CO)O2)c(=O)n1 [decitabine, 4-amino-1-(2-deoxy-β-D-erythro-pentofuranosyl)-1,3,5-triazin-2(1H)-one]
Impurities obtained on forced degradation [1]: four known impurities namely Impurity-1, Impurity-2, Impurity-3 and NFDU are obtained
Stability in aqueous media [2]: highly unstable
